Test results published in patent US5543420A, “Quinoline-3-acetic acid derivative, process for production thereof and use thereof” (The Green Cross Corporation, priority 1993, dated 1996).

Key:
Normal ICR mice = details: mouse, in vivo
Protocol: The acute toxicity (safety) of the compound of the present invention was confirmed by the following method.
Normal ICR mice (male, 7 weeks old, 5 per group) were fasted for 18 hours and the compounds (300 mg/kg) of Example 11 and Example 20 were orally administered as 0.5% carboxymethylcellulose suspensions. To the control group, a 0.5% carboxymethylcellulose solution alone was orally administered and observation was continued for 14 days thereafter, during which period the mice were allowed to take feed and water freely.

aldose reductase = target: T1, aldose reductase (Sus scrofa, UniProt P80276); test: Aldose reductase inhibitory action; type: biochemical; details: swine lens enzyme, diglyceraldehyde substrate 3 mM, 0.1 mM NADPH, pH 6.2, 25° C., 2 minutes; read-out: IC50 (concentration inhibiting the aldose reductase activity by 50%)
T1 construct: An aldose reductase enzyme standard product was prepared from swine lens; from tissue; host or cells: swine lens
Protocol: An aldose reductase enzyme standard product was prepared from swine lens according to the method of S. Hayman et al. [Journal of Biological Chemistry, 240, 877-882 (1965)]. That is, swine lenses freeze-stored at -80° C. were homogenized with distilled water and cetrifuged at 10,000 g for 15 minutes. The supernatant was prepared into a 40% ammonium sulfate solution and subjected to cetrifugation at 10,000 g for 10 minutes. The supernatant obtained was dialyzed overnight against a 0.05M sodium chloride solution to give a dialyzed solution, which was used as an enzyme standard product.
The activity of aldose reductase was determined by the above-mentioned method of S. Hayman et al. That is, the above-mentioned enzyme solution (25 μl) and a drug solution (25 μl) in 1% DMSO at various concentrations were added to a 40 mM phosphate buffer (200 μl, pH 6.2) containing final concentrations of 0.4M lithium sulfate, 0.1 mM NADPH (reduced type nicotinamide adenine dinucleotide phosphate) and 3 mM diglyceraldehyde as a substrate. The mixture was allowed to react at 25° C. for 2 minutes and the changes in absorbance at 340 nm was determined with COBAS FARA II (manufactured by Roche).
The changes in absorbance when 1% DMSO was added instead of the drug solution was taken as 100%, based on which 50% inhibition concentration (IC50) was calculated and shown in Table 1.
The test drug number indicates the example number to be mentioned later. Compound A is 3,4-dihydro-2,8-diisopropyl-3-thioxo-2H-1,4-benzoxazine-4-acetic acid disclosed in Japanese Patent Unexamined Publication 107970/1988.

[1] = system: sorbitol accumulation in tissues (erythrocytes, sciatic nerve, lens); test: Inhibitory action on sorbitol accumulation in tissues of rats with experimental diabetes; type: in vivo, Sprague-Dawley rats; details: streptozotocin rats, 3 hours after final administration, control taken as 100%
Protocol: Sprague-Dawley rats (male, 6 weeks old, 5-6 per group) were fasted for 18 hours and injected with streptozotocin (SIGMA, 60 mg/kg) via the tail vein under etherization to prepare rats with diabetes.
[…] During the administrations, the rats were raised under free access to feed and water and the sorbitol content in the tissues (erythrocytes, sciatic nerve, lens) was determined 3 hours after the final administration according to the enzyme method of H. Y. Bergmeyer et al. [Methods of Enzymatic Analysis, vol. 3, 1323-1330 (1974)] with the use of SDH (sorbitol dehydrogenase) and NAD (β-nicotinamide adenine dinucleotide). The results are expressed in percent (%) relative to the value of a control group administered with 0.5% carboxymethylcellulose solution (solvent) instead of the compound, which was taken as 100%.

[2] = 10 mg/kg oral at 4, 8 and 24 hours
[3] = 30 mg/kg oral at 4, 8 and 24 hours

With O=C(O)CC1Cc2ccccc2N(Cc2nc3c(F)c(F)cc(F)c3s2)C1=O (stereo not shown) [Example 11, 1-(4,5,7-Trifluorobenzothiazol-2-Yl)Methyl-2-Oxo-1,2,3,4-Tetrahydro-1H-Quinolin-3-Ylacetic Acid] as the molecule, how does the “death of the mice” value (Normal ICR mice) read?
Its value is “no case of death”.

What about the IC50 (aldose reductase) of the same molecule?
Its IC50 is 9 nM.

And the “Sorbitol accumulation, erythrocytes” value [1, 2]?
Its value is 15.6%.

And the “Sorbitol accumulation, lens” value [1, 2]?
The value was 50.7%.

What about the “Sorbitol accumulation, sciatic nerve” value [1, 2] of the same molecule?
The value was 0.0%.

Which IC50 (aldose reductase) does the source give for O=C(O)CC1Cc2ccccc2N(Cc2nc3c(F)c(F)ccc3s2)C1=O (stereo not shown) [Example 12, 1-(4,5-difluorobenzothiazol-2-yl)methyl-2-oxo-1,2,3,4-tetrahydro-1H-quinolin-3-ylacetic acid] here?
The IC50 was 13 nM.

And the “Sorbitol accumulation, erythrocytes” value [1, 2]?
Its value is 0.0%.

What about the “Sorbitol accumulation, lens” value [1, 2] of the same molecule?
Its value is 78.8%.

And the “Sorbitol accumulation, sciatic nerve” value [1, 2]?
The value was 0.0%.

How did the “death of the mice” value (Normal ICR mice) turn out when O=C(O)Cc1cc2ccccc2n(Cc2nc3c(F)c(F)cc(F)c3s2)c1=O [Example 20, 1-(4,5,7-trifluorobenzothiazol-2-yl)methyl-2-oxo-1,2-dihydro-1H-quinolin-3-ylacetic acid] was run?
The value was “no case of death”.

And the IC50 (aldose reductase)?
Its IC50 is 9.4 nM.

For CC(C)c1cccc2c1OC(C(C)C)C(=S)N2CC(=O)O (stereo not shown) [Compound A, 3,4-dihydro-2,8-diisopropyl-3-thioxo-2H-1,4-benzoxazine-4-acetic acid, reference compound], which “Sorbitol accumulation, erythrocytes” value [1, 3] is on record?
The value was 53.7%.

What about the “Sorbitol accumulation, lens” value [1, 3] of the same molecule?
The value was 87.3%.

What about the “Sorbitol accumulation, sciatic nerve” value [1, 3] of the same molecule?
The value was 54.9%.

Which IC50 (aldose reductase) does the source give for Cc1ccc2c(c1)CC(CC(=O)O)C(=O)N2Cc1nc2c(F)c(F)cc(F)c2s1 (stereo not shown) [Example 17, 1-(4,5,7-trifluorobenzothiazol-2-yl)methyl-6-methyl-2-oxo-1,2,3,4-tetrahydro-1H-quinolin-3-ylacetic acid] here?
Its IC50 is 11 nM.

And the “Sorbitol accumulation, erythrocytes” value [1, 2]?
Its value is 31.2%.

And the “Sorbitol accumulation, lens” value [1, 2]?
Its value is 46.9%.

And the “Sorbitol accumulation, sciatic nerve” value [1, 2]?
Its value is 0.5%.

How did the IC50 (aldose reductase) turn out when O=C(O)CC1Cc2cc(F)ccc2N(Cc2nc3c(F)c(F)cc(F)c3s2)C1=O (stereo not shown) [Example 19, 6-fluoro-1-(4,5,7-trifluorobenzothiazol-2-yl)methyl-2-oxo-1,2,3,4-tetrahydro-1H-quinolin-3-ylacetic acid] was run?
The IC50 was 12 nM.
